For 42 compounds, mortality results are on record in US6407248B1, “α-unsaturated amines, their production and use” (Takeda Chemical Industries, Ltd., priority 1987, dated 2002).

The mortality is the share of the test organisms that died.

Each structure is given as a SMILES string. Like-named read-outs stand apart in the source and are kept apart here.

For this assay, the system named is Brown Planthoppers (Nilaparvata lugens). The assay can be described thus: Effect against brown planthoppers (foliar spray on rice seedlings). Type of assay: in vivo. Particulars: Nilaparvata lugens, foliar, 168 h, read-out: % Mortality after 7 days. As for the experimental part:
Effect Against Brown Planthoppers (Nilaparvata lugens)
An emulsifiable concentrate of the compound of the invention, prepared in the same manner as Example 112 below, was diluted with water to a concentration of 500 ppm and sprayed over the stems and leaves of rice seedlings in the 2-leaf stage at the rate of 10 ml per paper pot. Water was put in test tubes and the treated rice seedlings were placed therein. Then, 10 brown planthopper larvae were released in each tube, which was then capped with an aluminum cap. The test tubes were maintained in an incubator at 25° C. and the dead insects were counted 7 days after release. The % mortality was calculated using the following formula. [formula]

Where [1] appears, read: emulsifiable concentrate diluted with water to 500 ppm, sprayed on rice seedlings (2-leaf stage), 10 ml per paper pot, 10 larvae per tube, 25° C., dead insects counted 7 days after release.

Regarding `CNC(=C[N+](=O)[O-])N(C)Cc1ccc(Cl)cc1` [Compound 68, 1-[N-(4-Chlorobenzyl)-N-methyl]amino-1-methylamino-2-nitroethylene], the mortality at 500 µg/mL under setting [1] is 100%.
On to `CNC(=C[N+](=O)[O-])NCc1ccc(Cl)cc1` [Compound 70, 1-(4-Chlorobenzyl)amino-1-methylamino-2-nitroethylene], for which the mortality at 500 µg/mL under setting [1] was found to be 100%.
The same measure, in the same setting: with `CN(C)C(=C[N+](=O)[O-])NCc1ccc(Cl)cc1` [Compound 71, 1-(4-Chlorobenzyl)amino-1-dimethylamirxo-2-nitroethylene] the figure was 100%; with `CN(C)C(=C[N+](=O)[O-])N(C=O)Cc1cccnc1` [Compound 72, 1-Dimethylamino-1-[N-formyl-N-(3-pyridylmethyl)]-amino-2-nitroethylene], 100%.
Still for that read-out and setting: with `CNC(=C[N+](=O)[O-])N(C)Cc1cnccn1` [Compound 73, 1-Methylamino-1-[N-methyl-N-(2-pyrazinyl)methyl]amino-2-nitroethylene] the figure was 100%.
Consider `CCCN(Cc1ccc(Cl)nc1)C(N)=C[N+](=O)[O-]` [Compound 75, 1-Amino-1-[N-(6-chloro-3-pyridylmethyl)-N-n-propyl]-amino-2-nitroethylene], for which the mortality at 500 µg/mL is 100%.
The same measure, in the same setting: with `CCCN(Cc1ccc(Cl)nc1)C(=C[N+](=O)[O-])NC` [Compound 76, 1-[N-(6-Chloro-3-pyridylmethyl)-N-n-propyl]amino-1-methylamino-2-nitroethylene] the figure was 100%.
Regarding `CNC(=C[N+](=O)[O-])N(C)c1ccc(Cl)nc1` [Compound 78, 1-[N-(6-Chloro-3-pyridyl)-N-methyl]amino-1-methyl-amino-2-nitroethylene], under setting [1], the mortality at 500 µg/mL came out at 100%.
On the same count and under the same terms, with `CNC(=C[N+](=O)[O-])N(C)c1cccnc1` [Compound 79, 1-Methylamino-1-[N-methyl-N-(3-pyridyl)]amino-2-nitroethylene] the figure was 100%.
For `CCNC(=C[N+](=O)[O-])N(C)Cc1ccc(Cl)nc1` [Compound 80, 1-[N-(6-Chloro-3-pyridylmethyl)-N-methyl]amino-1-ethylamino-2-nitroethylene], the mortality at 500 µg/mL worked out at 100%.
As for `CNC(=C[N+](=O)[O-])N(C)c1ccc(C)nc1` [Compound 84, 1-Methylamino-1-[N-methyl-N-(6-methyl-3-pyridyl)]-amino-2-nitroethylene], the mortality at 500 µg/mL under setting [1] came to 100%.
Still for that read-out and setting: with `CCNC(=C[N+](=O)[O-])N(C)c1ccc(Cl)nc1` [Compound 85, 1-[N-(6-chloro-3-pyridyl)-N-methyl]amino-1-ethyl-amino-2-nitroethylene] the figure was 100%; with `CNC(=C[N+](=O)[O-])N(C)Cc1cncc(Br)c1` [Compound 86, 1-[N-(5-Bromo-3-pyridylmethyl)-N-methyl]amino-1-methylamino-2-nitroethylene], 100%.
Take `CNC(=C[N+](=O)[O-])N(C)Cc1cscn1` [Compound 88, 1-Methylamino-1-[N-methyl-N-(4-thiazolyl)methyl]-amino-2-nitroethylene]: the mortality at 500 µg/mL under setting [1] was 100%.
With `O=[N+]([O-])C=C(NCc1ccc(Cl)nc1)NCc1ccc(Cl)nc1` [Compound 89, 1,1-bis(6-Chloro-3-pyridylmethyl)amino-2-nitro-ethylene], the mortality at 500 µg/mL stood at 100%.
On to `CCN(C(=C[N+](=O)[O-])NC)c1ccc(Cl)nc1` [Compound 90, 1-[N-(6-Chloro-3-pyridyl)-N-ethyl]amino-1-methyl-amino-2-nitroethylene], for which, under setting [1], the mortality at 500 µg/mL turned out to be 100%.
`CCCN(C(=C[N+](=O)[O-])NC)c1ccc(Cl)nc1` [Compound 91, 1-[N-(6-Chloro-3-pyridyl)-N-n-propyl]amino-1-methyl-amino-2-nitroethylene]: under setting [1], the mortality at 500 µg/mL is 100%.
For the compound `CCCCN(C(=C[N+](=O)[O-])NC)c1ccc(Cl)nc1` [Compound 92, 1-[N-n-Butyl-N-(6-chloro-3-pyridyl)]amino-1-methyl-amino-2-nitroethylene], under setting [1], the mortality at 500 µg/mL is 100%.
As for `CCNC(=C[N+](=O)[O-])N(CC)c1ccc(Cl)nc1` [Compound 93, 1-[N-(6-Chloro-3-pyridyl)-N-ethyl]amino-1-ethyl-amino-2-nitroethylene], the mortality at 500 µg/mL under setting [1] came out at 100%.
As for `CCCNC(=C[N+](=O)[O-])N(C)c1ccc(Cl)nc1` [Compound 95, 1-[N-(6-Chloro-3-pyridyl)-N-methyl]amino-1-n-propyl-amino-2-nitroethylene], the mortality at 500 µg/mL under setting [1] was 100%.
Same read-out and setting: with `CNC(=C[N+](=O)[O-])Nc1ccc(Cl)nc1` [Compound 96, 1-(6-Chloro-3-pyridyl)amino-1-methylamino-2-nitro-ethylene] the figure was 100%.
`CNC(=C[N+](=O)[O-])N(C)Cc1ccc(C)nc1` [Compound 97, 1-Methylamino-1-[N-methyl-N-(6-methyl-3-pyridyl-methyl)]amino-2-nitroethylene]: the mortality at 500 µg/mL was found to be 100%.
As for `CNC(=C[N+](=O)[O-])N(C)Cc1ccc(F)nc1` [Compound 98], the mortality at 500 µg/mL was determined as 100%.
With `CCN(Cc1ccc(F)nc1)C(=C[N+](=O)[O-])NC` [Compound 99, 1-[N-Ethyl-N-(6-fluoro-3-pyridylmethyl)]amino-1-methylamino-2-nitroethylene], the mortality at 500 µg/mL was determined as 100%.
`CNC(=C[N+](=O)[O-])N(C)Cc1ccc(Br)nc1` [Compound 100, 1-[N-(6-Bromo-3-pyridylmethyl)-N-methyl]amino-1-methylamino-2-nitroethylene]: the mortality at 500 µg/mL came to 100%.
For the compound `CCN(Cc1ccc(Br)nc1)C(=C[N+](=O)[O-])NC` [Compound 101, 1-[N-(6-Bromo-3-pyridylmethyl)-N-ethyl]amino-1-methylamino-2-nitroethylene], the mortality at 500 µg/mL was determined as 100%.
Turning to `CNC(=C[N+](=O)[O-])N(C)Cc1cnc(Cl)s1` [Compound 102, 1-[N-(2-Chloro-5-thiazolylmethyl)-N-methyl]amino-1-methylamino-2-nitroethylene], the mortality at 500 µg/mL worked out at 100%.
For `CCN(Cc1cnc(Cl)s1)C(=C[N+](=O)[O-])NC` [Compound 103, 1-[N-(2-Chloro-5-thiazolylmethyl)-N-ethyl]amino-1-methylamino-2-nitroethylene], the mortality at 500 µg/mL is 100%.
`CN(C)C(=C[N+](=O)[O-])NCc1cnc(Cl)s1` [Compound 104, 1-(2-Chloro-5-thiazolylmethyl)amino-1-dimethyl-amino-2-nitroethylene]: the mortality at 500 µg/mL was 100%.
Consider `O=[N+]([O-])C=C(NCc1cnc(Cl)s1)NCc1cnc(Cl)s1` [Compound 105, 1,1-bis(2-chloro-5-thiazolylmethyl)amino-2-nitroethylene], for which the mortality at 500 µg/mL amounted to 100%.
Take `CNC(=C[N+](=O)[O-])NCc1cnc(Cl)s1` [Compound 106, 1-(2-Chloro-5-thiazolylmethyl)amino-1-methylamino-2-nitroethylene]: the mortality at 500 µg/mL amounted to 100%.
`CN(C)C(=C[N+](=O)[O-])Nc1ccc(Cl)nc1` [Compound 107, 1-(6-Chloro-3-pyridyl)amino-1-dimethylamino-2-nitrothylene]: under setting [1], the mortality at 500 µg/mL worked out at 100%.
`CNC(=C[N+](=O)[O-])N(C)c1ccc(OC)nc1` [Compound 108, 1-[N-(6-Methoxy-3-pyridyl)-N-methyl]amino-1-1-methyl-amino-2-nitroethylene]: under setting [1], the mortality at 500 µg/mL came to 100%.
Take `CCOC(=O)C(=C(NC)N(C)c1ccc(Cl)nc1)[N+](=O)[O-]` [Compound 109, 1-[N-(6-Chloro-3-pyridyl)-N-methyl]amino-1-methylamino-2-ethoxycarbonyl-2-nitroethylene]: the mortality at 500 µg/mL under setting [1] came out at 100%.
As to `CN(C=O)C(=C[N+](=O)[O-])N(C)Cc1ccc(Cl)nc1` [Compound 110, 1-[N-(6-Chloro-3-pyridylmethyl)-N-methyl]amino-1-(N-formyl-N-methyl)amino-2-nitroethylene], the mortality at 500 µg/mL was found to be 100%.
`CCN(Cc1ccc(Cl)nc1)C(=C[N+](=O)[O-])N(C)C=O` [Compound 111, 1-[N-(6-Chloro-3-pyridylmethyl)-N-ethyl]amino-1-(N-formyl-N-methyl)amino-2-nitroethylene]: the mortality at 500 µg/mL came to 100%.
For the compound `CN(C=O)C(=C[N+](=O)[O-])N(C)c1ccc(Cl)nc1` [Compound 112, 1[N-(6-Chloro-3-pyridyl)-N-methyl]amino-1-(N-formyl-N-methyl)amino-2-nitroethylene], under setting [1], the mortality at 500 µg/mL amounted to 100%.
For `CN(C)C(=C[N+](=O)[O-])N(C=O)Cc1ccc(Cl)nc1` [Compound 113, 1-[N-(6-Chloro-3-pyridylmethyl)-N-formyl]amino-1-dimethylamino-2-nitroethylene], the mortality at 500 µg/mL was found to be 100%.
On to `CCOC(=O)C(=C(NC)NCc1ccc(Cl)nc1)[N+](=O)[O-]` [Compound 116, 1-(6-Chloro-3-pyridylmethyl)amino-1-methylamino-2-ethoxycarbonyl-2-nitroethylene], for which the mortality at 500 µg/mL is 100%.
`CNC(NCc1ccc(Cl)nc1)=C(C(=S)NS(C)(=O)=O)[N+](=O)[O-]` [Compound 117]: the mortality at 500 µg/mL stood at 100%.
Same read-out and setting: with `CNC(=C[N+](=O)[O-])NCc1ccc(Br)nc1` [Compound 118, 1-N-(6-Bromo-3-pyridylmethyl)amino-1-methylamino-2-nitroetylene] the figure was 100%; with `CN(C=O)C(=C[N+](=O)[O-])N(C)Cc1cnc(Cl)s1` [Compound 121, 1-[N-(2-Chloro-5-thiazolylmethyl)-N-methyl)amino-1-(N-formyl-N-methyl)amino-2-nitroethylene], 100%.
